For assay [1], the system named is Aspergillus niger, Penicillium pinophilum, Chetomium globusum, Gliocladium virens, Aurebasidium pullulans. Put plainly: ASTM G-21 fungi resistance of extruded wood/thermoplastic composite boards, unweathered or after QUV accelerated weathering with leaching. The format is cell-based. Further details: key to Visual Assessment of Fungal Growth (0-4 scale) / Visual assessment of fungal growth, ZB = 2%, Weathering 0 h: 0: None; Traces of growth (less than 10%); 2: Light growth (10 to 30%); Medium growth (more than 30 to 60%); 4: Heavy growth (60% to complete coverage). The following applies: for Visual Assessment of Fungal Growth (0-4 scale): pine WPC without UV stabilizer; for Visual Assessment of Fungal Growth (0-4 scale) / visual assessment, 0-4 fungal growth assessment scale: cobiocide content 0% (borate alone); for visual assessment, 0-4 fungal growth assessment scale: oak WPC, no UV stabilizer package. The protocol: Three 50×50×4 mm specimens were cut from the core of extruded boards, sterilized with a 30 kGy dose of Electron beam radiation and exposed to fungi attack according to ASTM G-21.
After 28 days exposure to the fungi at 98% relative humidity and 28° C., specimens were evaluated using the first scale, from 0-4 as recommended by ASTM G-21 (see Table 3). Results are shown in Table 4 with the summary in Tables 5-7.
Samples prepared according to Example 1 were exposed to accelerated weathering using a QUV accelerated weathering chamber with fluorescent bulb combined with leaching cycle. […] This includes cycles comprised of 8 h UV light (UVA 340 lamps @0.77 W/m^2/nm) @60° C. followed by 4 hours condensation @50° C. Samples were exposed to these conditions for 15 hours and then leached in water. Leaching consisted of 4 hours soaking and 3 hours drip dry (1 hours was required for sample handling). […] After exposure, three 1″×2.5″×⅛″ specimens were cut from the sample. The surface exposed to light and leaching and tested for fungi resistance as described in example 2. Results are presented in Table 3 with summary in Tables 4-6
Samples prepared according to Example 1 were exposed to accelerated weathering using a QUV accelerated weathering chamber with fluorescent bulb combined with leaching cycle. Total exposure time was 1000 hours. This includes cycles comprised of 8 h UV light (UVA 340 lamps @0.77 W/m^2/nm) @60° C. followed by 4 hours condensation @50° C. Samples were exposed to these conditions for 16 hours and then leached in water. Leaching consisted of 4 hours soaking and 3 hours drip dry (1 h was required for sample handling). […] After exposure, three 1″×2.5″×⅛″ specimens were cut from the sample. The surface exposed to light and leaching and tested for fungi resistance as described in Example 2. Results are presented in Table 3 with summary in Tables 4-6.

Assay [2] shares this test system. Put plainly: ASTM G-21 fungi exposure of dried paint coating films. Format: cell-based. Conditions: coating film, ASTM G-21, 28 days; very high concentrations of Chlortram (0.33%). The protocol: The coatings were cast on flat polyethylene sheeting and dried into 10 mil thick film before removal from the polyethylene substrate. The dried paint coatings were cut into 2″×2″ square specimens, sterilized with 30 kGy EB radiation and exposed to fungi attack according to ASTM G-21. After 28 days exposure to the fungi at 98% relative humidity and 28° C., the specimens were evaluated using two scales.

Data on three compounds can be found in US20080233210A1, “Co-Biocidal Formulation for Polymeric Materials” (U.S. BORAX INC., priority 2005, published 2008).

With `OB(O)O` [BA], the “Visual Assessment of Fungal Growth (0-4 scale)” value is recorded as 4 (Heavy growth (60% to complete coverage)) in assay [1] (BA = 1%, weathering 0 hours) and 3 (Medium growth (more than 30 to 60%)) in assay [1] (BA = 2%, weathering 0 hours).

Take `N#Cc1c(Cl)c(Cl)c(Cl)c(C#N)c1Cl` [Chlortram, 2,4,5,6 tetrachloro-1,3-benzene-dicarbonitrile]: in assay [2], the “fungal growth observed on coating specimens” value is recorded as “No fungal growth”.

For the compound Zinc borate [ZB], the “visual assessment, 0-4 fungal growth assessment scale” value is 4 (Heavy growth (60% to complete coverage)) in assay [1] (ZB = 1%, weathering 0 h); 4 (Heavy growth (60% to complete coverage)) in assay [1] (ZB = 1%, weathering 500 h); 3 (Medium growth (more than 30 to 60%)) in assay [1] (ZB = 1%, weathering 1000 h); 2 (Light growth (10 to 30%)) in assay [1] (ZB = 1.5%, weathering 0 h); 2 (Light growth (10 to 30%)) in assay [1] (ZB = 2%, weathering 0 h); 3 (Medium growth (more than 30 to 60%)) in assay [1] (ZB = 2%, weathering 500 h). The “visual assessment, 0-4 fungal growth assessment scale” value in assay [1] (ZB = 2%, weathering 1000 h) was 3 (Medium growth (more than 30 to 60%)). Besides, in assay [1] (pine WPC with UV stabilizer package, cobiocide content 0%, ZB = 1%, 0 h), the “Visual assessment of fungal growth, ZB = 1%, Weathering 0 h” value is given as 1 (Traces of growth (less than 10%)). Moreover, the “Visual assessment of fungal growth, ZB = 1%, Weathering 500 h” value in assay [1] (pine WPC with UV stabilizer package, cobiocide content 0%, ZB = 1%, 500 h) is on record as 4 (Heavy growth (60% to complete coverage)). For the same compound, in assay [1] (pine WPC with UV stabilizer package, cobiocide content 0%, ZB = 1%, 1000 h), the “Visual assessment of fungal growth, ZB = 1%, Weathering 1000 h” value is on record as 4 (Heavy growth (60% to complete coverage)). Moreover, the “Visual assessment of fungal growth, ZB = 2%, Weathering 0 h” value in assay [1] (pine WPC with UV stabilizer package, cobiocide content 0%, ZB = 2%, 0 h) is on record as 0. The “Visual assessment of fungal growth, ZB = 2%, Weathering 500 h” value in assay [1] (pine WPC with UV stabilizer package, cobiocide content 0%, ZB = 2%, 500 h) is reported as 3 (Medium growth (more than 30 to 60%)). Further, in assay [1] (pine WPC with UV stabilizer package, cobiocide content 0%, ZB = 2%, 1000 h), the “Visual assessment of fungal growth, ZB = 2%, Weathering 1000 h” value is given as 4 (Heavy growth (60% to complete coverage)). Further, the “Visual Assessment of Fungal Growth (0-4 scale)” value is 2 (Light growth (10 to 30%)) in assay [1] (ZB = 1%, weathering 0 h); 4 (Heavy growth (60% to complete coverage)) in assay [1] (ZB = 1%, weathering 500 h); 4 (Heavy growth (60% to complete coverage)) in assay [1] (ZB = 1%, weathering 1000 h); 1 (Traces of growth (less than 10%)) in assay [1] (ZB = 1.5%, weathering 0 hours); 0 in assay [1] (ZB = 2%, weathering 0 h); 4 (Heavy growth (60% to complete coverage)) in assay [1] (ZB = 2%, weathering 500 h).
